Laboratory results: patent US4374149A, “α-{[(Arylalkyl)amino]alkyl}-4-hydroxy-3-(lower-alkylsul finyl)benzenemethanols” (Sterling Drug Inc., priority 1978, dated 1983)
Structures can show the parent of a compound that is named as a salt. Where two headings read alike, the source gives them in different places.

Tests used:
[1] = test system: isolated rabbit ear artery; assay: Vasodilator activity, perfusion pressure in isolated rabbit ear artery
Excerpt: (§1) Vasodilator activity was judged on the basis of observed reduction in perfusion pressure in the hind limb vasculature of the anesthetized dog determined according to the procedure described by Jandhyala et al., European J. Pharm. 17, 357 (1972), and also on the basis of percent reduction in perfusion pressure as measured in the isolated rabbit ear artery according to the method described by De LaLande et al., Aust. J. Exp. Biol. Med. Sci. 43, 639 (1965).
^d Vasodilation is expressed as the percentage reduction in perfusion

[2] = test system: systolic blood pressure; assay: Antihypertensive activity, reduction in systolic blood pressure, single oral medication, unanesthetized spontaneous hypertensive rat; type: in vivo; conditions: P.O.; for Antihypertensive activity SH Rat AHD40 (single oral dose required to induce a 40 mm. average reduction in systolic blood pressure): unanesthetized SH rat
Description: Antihypertensive activity was determined on the basis of the observed reduction in systolic blood pressure measured according to the method of H. Kersten et al., J. Lab. and Clin. Med. 32, 1090 (1947) following a single oral medication in the unanesthetized spontaneous hypertensive rat described by Okamato et al., Japan Circulation J. 27, 282 (1963).
^a AHD40 = single oral dose required to induce a 40 mm. average

[3] = test system: β-adrenergic; assay: β-adrenergic blocking activity, inhibition of isoproterenol-elicited heart rate increase in pentobarbitalized dog; type: in vivo; conditions: i.v.; for Dog β-blockade AED50 (approximate intravenous dose for 50% inhibition of isoproterenol-elicited heart rate increase): pentobarbitalized dog
Description: The β-adrenergic blocking activity was determined in the pentobarbitalized dog as judged by the ability of the test compound to inhibit the elevation in heart rate elicited by a 0.5 mcg./kg. i.v. injection of isoproterenol.
^e AED50 = approximate intravenous dose required to cause 50%

[4] = test system: blood pressure; assay: Antihypertensive activity, sustained lowering of blood pressure, repeated oral medication, unanesthetized trained renal hypertensive dog; type: in vivo; conditions: tid.
Description: Antihypertensive activity was also judged on the basis of sustained reduction of blood pressure observed in the unanesthetized trained renal hypertensive dog following repeated oral medication according to the procedure described by Lape et al., Arch.
^b MED10 = minimum repeated oral daily dose required to effect a

[5] = test system: hind limb vasculature; assay: Vasodilator activity, perfusion pressure in hind limb vasculature of anesthetized dog; type: in vivo; conditions: for Vasodilator activity Dog-Leg Perfusion AED50 (approximate intraarterial dose for 50 reduction in perfusion pressure): acetate salt; for Actual percentage reduction in perfusion pressure observed at the indicated dose: 0.025 mg./kg. intraarterial; for ED50: Canis lupus familiaris, read-out: Vasodilator activity Dog-Leg Perfusion AED50 (approximate intraarterial dose for 50 reduction in perfusion pressure)
Excerpt: as §1
^c AED50 = approximate intraarterial dose required to cause a 50

[6] = test system: Ba++-induced arrhythmia; assay: Conversion of Ba++-induced arrhythmia in rabbits; type: in vivo; design: key: active (A); inactive (I); conditions: 5 × 10^-6 M/kg.
Description: The test procedures were carried out as follows.
Adult rabbits or either sex weighing between 1.7 and 2.3 kg. were anesthetized with 30 to 35 mg./kg. Na-pentobarbital i.v. via a marginal ear vein. Monoplar ECG pin electrodes were inserted for a lead II display on a Model 5 Grass Polygraph using standard electrocardiographic procedures. A 23 ga. hypodermic needle, attached via a polyethylene catheter to a 10 cc. syringe, was inserted into the same vein as was used for anesthesia. A BaCl2.2H2 O solution in saline was then infused at a constant volume of 0.2 cc/min. from a Harvard Apparatus Model 600 infusion pump. This infusion was not stopped until termination of the experiment. In some studies barium chloride in distilled water was used without detectable differences. The standard rate of BaCl2.2H2 O infusion was established at 0.3 mg./kg./min. (1.2×10^-6 M/kg./min.), and the concentration was adjusted appropriately in each case to accommodate the weight of the rabbit.
When the desired arrhythmia was established, the test compound was introduced as a water or saline solution into the marginal ear vein of the unused ear. The volume used was between 0.5 and 2.0 cc./kg. and was injected as a bolus over approximately 30 seconds. Deviations from standard vehicle, rate of injection and total volume administered were at the discretion of the operator. The standard initial dose of an unknown compound on the first rabbit was 5×10^-5 M/kg. In general, two to three rabbits were used to determine anti-arrhythmic activity and the dose range of activity; multiple doses were administered. Once activity and dose was indicated, two additional rabbits were employed to confirm anti-arrhythmic activity against a multifocal tachycardia.

[7] = 1 × 10^-4 M, 100 µM, hydrochloride
[8] = intraarterial, anesthetized dog hind limb
[9] = 5 × 10^-5 M, 50 µM, acetate salt

SMILES: COc1ccc(CCC(C)NCC(O)c2ccc(O)c([S+](C)[O-])c2)cc1 (single isomer, unassigned) [Example 11, 4-hydroxy-α-<{[3-(4-methoxyphenyl)-1-methylpropyl]amino}methyl>-3-(methylsulfinyl)benzenemethanol hydrochloride]
- Rabbit Ear Artery vasodilation (percentage reduction in perfusion pressure from control level) [1, 7]: 38%
- Actual reduction in blood pressure observed at the indicated dose ([2]; 16.0 mg./kg., hydrochloride): -14 mm. Hg
- Antihypertensive activity SH Rat AHD40 (single oral dose required to induce a 40 mm. average reduction in systolic blood pressure) ([2]; hydrochloride): > 16.0 mg/kg
- Dog β-blockade AED50 (approximate intravenous dose for 50% inhibition of isoproterenol-elicited heart rate increase) ([3]; hydrochloride): 0.25 mg/kg
- Actual percentage reduction in blood pressure observed at the indicated dose ([4]; 0.5 mg./kg., hydrochloride): 14%
- Renal Hypertensive Dog MED10 (minimum repeated oral daily dose for sustained lowering of blood pressure of 10% or greater) ([4]; hydrochloride): < 0.5 mg/kg

SMILES: COc1ccc(CCC(C)NCC(O)c2ccc(O)c([S+](C)[O-])c2)cc1 (single isomer, unassigned) [Example 12, 4-hydroxy-α-<{[3-(4-methoxyphenyl)-1-methylpropyl]amino}methyl>-3-(methylsulfinyl)benzenemethanol hydrochloride]
- Rabbit Ear Artery vasodilation (percentage reduction in perfusion pressure from control level) ([1]; 2 × 10^-4 M, 200 µM): 50%
- Antihypertensive activity SH Rat AHD40 (single oral dose required to induce a 40 mm. average reduction in systolic blood pressure) ([2]; hydrochloride): 5 mg/kg
- Dog β-blockade AED50 (approximate intravenous dose for 50% inhibition of isoproterenol-elicited heart rate increase) ([3]; hydrochloride): 0.05 mg/kg
- Actual percentage reduction in blood pressure observed at the indicated dose ([4]; 0.5 mg./kg., hydrochloride): 14%
- Renal Hypertensive Dog MED10 (minimum repeated oral daily dose for sustained lowering of blood pressure of 10% or greater) ([4]; hydrochloride): < 0.5 mg/kg

SMILES: COc1ccc(CCC(C)NCC(O)c2ccc(O)c([S+](C)[O-])c2)cc1 (single isomer, unassigned) [Example 13C, 4-hydroxy-α-<{[3-(4-methoxyphenyl)-1-methylpropyl]amino}methyl>-3-(methylsulfinyl)benzenemethanol hydrochloride]
- Rabbit Ear Artery vasodilation (percentage reduction in perfusion pressure from control level) [1, 7]: 50%
- Antihypertensive activity SH Rat AHD40 (single oral dose required to induce a 40 mm. average reduction in systolic blood pressure) ([2]; hydrochloride): 3 mg/kg
- Dog β-blockade AED50 (approximate intravenous dose for 50% inhibition of isoproterenol-elicited heart rate increase) ([3]; hydrochloride): 0.0125 mg/kg
- Actual percentage reduction in blood pressure observed at the indicated dose ([4]; 0.5 mg./kg., hydrochloride): 17%
- Renal Hypertensive Dog MED10 (minimum repeated oral daily dose for sustained lowering of blood pressure of 10% or greater) ([4]; hydrochloride): < 0.5 mg/kg

SMILES: COc1ccc(CCC(C)NCC(O)c2ccc(O)c([S+](C)[O-])c2)cc1 (stereo not drawn) [Example 2H, 4-hydroxy-α-<{[3-(4-methoxyphenyl)-1-methylpropyl]amino}methyl>-3-(methylsulfinyl)benzenemethanol acetate salt]
- Vasodilator activity Dog-Leg Perfusion AED50 (approximate intraarterial dose for 50 reduction in perfusion pressure) [5, 8]: 0.5 mg/kg
- Rabbit Ear Artery vasodilation (percentage reduction in perfusion pressure from control level) [1, 9]: 20%
- Antihypertensive activity SH Rat AHD40 (single oral dose required to induce a 40 mm. average reduction in systolic blood pressure) ([2]; acetate salt): 9.0 mg/kg
- Dog β-blockade AED50 (approximate intravenous dose for 50% inhibition of isoproterenol-elicited heart rate increase) ([3]; acetate salt): 0.025 mg/kg

SMILES: COc1ccc(CCC(C)NCC(O)c2ccc(O)c([S+](C)[O-])c2)cc1 (stereo not drawn) [Example 4C, 4-hydroxy-α-<{[3-(4-methoxyphenyl)-1-methylpropyl]amino}methyl>-3-(methylsulfinyl)benzenemethanol acetate salt]
- Vasodilator activity Dog-Leg Perfusion AED50 (approximate intraarterial dose for 50 reduction in perfusion pressure) [5, 8]: 0.5 mg/kg
- Rabbit Ear Artery vasodilation (percentage reduction in perfusion pressure from control level) ([1]; 1 × 10^-4 M, 100 µM, acetate salt): 10%
- Actual reduction in blood pressure observed at the indicated dose ([2]; 20 mg./kg.): -33 mm. Hg
- Antihypertensive activity SH Rat AHD40 (single oral dose required to induce a 40 mm. average reduction in systolic blood pressure) ([2]; acetate salt): > 20.0 mg/kg
- Dog β-blockade AED50 (approximate intravenous dose for 50% inhibition of isoproterenol-elicited heart rate increase) ([3]; acetate salt): ~0.5 mg/kg

SMILES: COc1ccc(CCC(C)NCC(O)c2ccc(O)c([S+](C)[O-])c2)cc1 (stereo not drawn) [Example 6E, 4-hydroxy-α-<{[3-(4-methoxyphenyl)-1-methylpropyl]amino}methyl>-3-(methylsulfinyl)benzenemethanol acetate salt]
- Actual percentage reduction in perfusion pressure observed at the indicated dose [5]: 25%
- Vasodilator activity Dog-Leg Perfusion AED50 (approximate intraarterial dose for 50 reduction in perfusion pressure) [5, 8]: > 0.025 mg/kg
- Rabbit Ear Artery vasodilation (percentage reduction in perfusion pressure from control level) [1, 9]: 58%
- Antihypertensive activity SH Rat AHD40 (single oral dose required to induce a 40 mm. average reduction in systolic blood pressure) ([2]; acetate salt): 15.0 mg/kg
- Dog β-blockade AED50 (approximate intravenous dose for 50% inhibition of isoproterenol-elicited heart rate increase) ([3]; acetate salt): 0.25 mg/kg

SMILES: COc1ccc(CCC(C)NCC(O)c2ccc(O)c([S+](C)[O-])c2)cc1 (stereo not drawn) [Example 9D, 4-hydroxy-α-<{[3-(4-methoxyphenyl)-1-methylpropyl]amino}methyl>-3-(methylsulfinyl)benzenemethanol acetate salt]
- Actual percentage reduction in perfusion pressure observed at the indicated dose [5]: 25%
- Vasodilator activity Dog-Leg Perfusion AED50 (approximate intraarterial dose for 50 reduction in perfusion pressure) [5, 8]: > 0.025 mg/kg
- Rabbit Ear Artery vasodilation (percentage reduction in perfusion pressure from control level) [1, 9]: 61%
- Antihypertensive activity SH Rat AHD40 (single oral dose required to induce a 40 mm. average reduction in systolic blood pressure) ([2]; acetate salt): 20.0 mg/kg
- Dog β-blockade AED50 (approximate intravenous dose for 50% inhibition of isoproterenol-elicited heart rate increase) ([3]; acetate salt): 0.0125 mg/kg

SMILES: CC(=O)O.C[S+]([O-])c1cc(C(O)CNC(C)(C)Cc2ccccc2)ccc1O (stereo not drawn) [Example 14D, α-{[(1,1-dimethyl-2-phenylethyl)amino]-methyl}-4-hydroxy-3-(methylsulfinyl)benzenemethanol acetate salt]
- ED50 [5, 8]: 0.5 mg/kg
- Rabbit Ear Artery vasodilation (percentage reduction in perfusion pressure from control level) ([1]; 1 × 10^-6 M, 1 µM): 29%
- Antihypertensive activity SH Rat AHD40 (single oral dose required to induce a 40 mm. average reduction in systolic blood pressure) [2]: 20.0 mg/kg
- Actual percentage inhibition of heart rate increase above control level observed at the indicated dose ([3]; 1.0 mg./kg.): 87%
- Dog β-blockade AED50 (approximate intravenous dose for 50% inhibition of isoproterenol-elicited heart rate increase) [3]: < 1.0 mg/kg

SMILES: COc1ccc(CC(C)NCC(O)c2ccc(O)c([S+](C)[O-])c2)cc1OC (stereo not drawn) [Example 16C, α-<{[2-(3,4-dimethoxyphenyl)-1-methylethyl]amino}methyl>-4-hydroxy-3-(methylsulfinyl)benzenemethanol acetate salt]
- ED50 [5]: 0.5 mg/kg
- Rabbit Ear Artery vasodilation (percentage reduction in perfusion pressure from control level) ([1]; 5 × 10^-5 M, 50 µM): 75%
- Antihypertensive activity SH Rat AHD40 (single oral dose required to induce a 40 mm. average reduction in systolic blood pressure) [2]: 15.0 mg/kg
- Actual percentage inhibition of heart rate increase above control level observed at the indicated dose ([3]; 0.1 mg./kg.): 38%
- Dog β-blockade AED50 (approximate intravenous dose for 50% inhibition of isoproterenol-elicited heart rate increase) [3]: > 0.1 mg/kg

SMILES: COc1ccc(CCC(C)(C)NCC(O)c2ccc(O)c([S+](C)[O-])c2)cc1 (stereo not drawn) [Example 18D, α-<{[1,1-dimethyl-3-(4-methoxyphenyl)propyl]amino}methyl>-4-hydroxy-3-(methylsulfinyl)benzenemethanol acetate salt]
- ED50 [5, 8]: 0.5 mg/kg
- Conversion of Ba++-induced Arrhythmia [6]: A
- Rabbit Ear Artery vasodilation (percentage reduction in perfusion pressure from control level) ([1]; 1 × 10^-4 M, 100 µM): 42%
- Actual reduction in blood pressure observed at the indicated dose ([2]; 20 mg./kg.): -26 mm. Hg
- Antihypertensive activity SH Rat AHD40 (single oral dose required to induce a 40 mm. average reduction in systolic blood pressure) [2]: > 20.0 mg/kg
- Actual percentage inhibition of heart rate increase above control level observed at the indicated dose ([3]; 1.0 mg./kg.): 100%
- Dog β-blockade AED50 (approximate intravenous dose for 50% inhibition of isoproterenol-elicited heart rate increase) [3]: < 1.0 mg/kg
- Renal Hypertensive Dog MED10 (minimum repeated oral daily dose for sustained lowering of blood pressure of 10% or greater) [4]: > 0.125 mg/kg
- Actual percentage reduction in blood pressure observed at the indicated dose ([4]; 0.125 mg./kg.): 0%

SMILES: COc1ccc(CCCNCC(O)c2ccc(O)c([S+](C)[O-])c2)cc1 (stereo not drawn) [Example 20C, 4-hydroxy-α-<{[3-(4-methoxyphenyl)propyl]amino}methyl>-3-(methylsulfinyl)benzenemethanol acetate salt]
- ED50 [5, 8]: 0.5 mg/kg
- Rabbit Ear Artery vasodilation (in words) ([1]; concentration not given): constrictor
- Antihypertensive activity SH Rat AHD40 (single oral dose required to induce a 40 mm. average reduction in systolic blood pressure) [2]: 7.0 mg/kg
- Actual percentage inhibition of heart rate increase above control level observed at the indicated dose ([3]; 0.1 mg./kg.): 67%
- Dog β-blockade AED50 (approximate intravenous dose for 50% inhibition of isoproterenol-elicited heart rate increase) [3]: < 0.1 mg/kg
- Renal Hypertensive Dog MED10 (minimum repeated oral daily dose for sustained lowering of blood pressure of 10% or greater) [4]: > 0.125 mg/kg
- Actual percentage reduction in blood pressure observed at the indicated dose ([4]; 0.125 mg./kg.): 0%
